# Target: T1, TRPC3 (Homo sapiens, UniProt Q13507)
# T1 sequence (Q13507 1-921): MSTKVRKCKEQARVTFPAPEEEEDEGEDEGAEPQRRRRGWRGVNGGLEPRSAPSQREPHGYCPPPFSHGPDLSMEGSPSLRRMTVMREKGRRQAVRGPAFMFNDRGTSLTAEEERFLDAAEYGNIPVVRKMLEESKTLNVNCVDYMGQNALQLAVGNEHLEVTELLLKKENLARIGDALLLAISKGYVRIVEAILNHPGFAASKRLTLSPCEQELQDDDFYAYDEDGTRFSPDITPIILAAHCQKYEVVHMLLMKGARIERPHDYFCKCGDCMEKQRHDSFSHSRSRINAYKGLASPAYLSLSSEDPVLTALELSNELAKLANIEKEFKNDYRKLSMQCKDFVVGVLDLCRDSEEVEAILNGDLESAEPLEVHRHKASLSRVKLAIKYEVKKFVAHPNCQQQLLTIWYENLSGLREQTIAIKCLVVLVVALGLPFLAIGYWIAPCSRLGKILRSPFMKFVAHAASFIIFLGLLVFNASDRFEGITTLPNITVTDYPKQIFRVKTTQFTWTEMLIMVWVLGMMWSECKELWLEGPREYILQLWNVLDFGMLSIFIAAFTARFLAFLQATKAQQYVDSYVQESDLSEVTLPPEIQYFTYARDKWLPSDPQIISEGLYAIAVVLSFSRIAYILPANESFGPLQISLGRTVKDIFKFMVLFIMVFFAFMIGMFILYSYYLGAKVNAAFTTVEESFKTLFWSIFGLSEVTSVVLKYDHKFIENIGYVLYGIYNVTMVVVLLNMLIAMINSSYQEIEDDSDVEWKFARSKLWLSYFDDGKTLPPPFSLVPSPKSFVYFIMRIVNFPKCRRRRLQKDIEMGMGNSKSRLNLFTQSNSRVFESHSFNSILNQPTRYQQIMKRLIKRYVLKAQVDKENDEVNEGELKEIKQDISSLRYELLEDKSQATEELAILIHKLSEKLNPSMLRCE
# Assay: whole-cell patch clamp of HEK293 cells transfected with hTRPC3, currents activated by GSK1702934A
# Assay type: cell-based
# Parameters: expressed in transfected cells; host or cells: HEK293 (CRL-1573), transient transfection, pMO vector
# Details: 10 μM compound in presence of agonist GSK1702934A; HEK293 whole-cell peak current; read-out: hTRPC3 % Inhibition at 10 μM (mean ± SEM)
# Description: Human embryonic kidney 293 (HEK293; catalog number CRL-1573) cells were cultured in Dulbecco's modified Eagle's medium (Invitrogen) supplemented with 10% fetal bovine serum and 1% penicillin-streptomycin at 37° C. and 5% CO2. Constructs cloned in pMO (a pcDNA3-modified vector) were co-transfected with GFP-pMO, using Lipofectamine 2000 (Invitrogen) according to the manufacturer's instructions. Macroscopic currents in the whole-cell patch clamp configuration were recorded 18-24 h post-transfection. The extracellular solution contained 140 mM NaCl, 6 mM KCl, 2 mM MgCl2, 10 mM HEPES, and 10 mM glucose (pH 7.4). Pipettes were made of borosilicate glass (outer diameter, 1.5 mm; inner diameter, 1.10 mm; Sutter Instruments) and fire-polished with a resistance between 2.8 and 4.0 megaohms when filled with an intracellular solution that contained 140 mM CsCl, 5 mM EGTA, and 10 mM HEPES, pH 7.2. Currents were recorded with a Multiclamp 700B amplifier (Molecular Devices) using a 1-s ramp from −100 to 100 mV. Agonist and antagonists perfused were dissolved in the bath solution prior experiments: TRP channel agonists Allyl isothiocyanate (AITC; TRPA1), capsaicin (TRPV1), and menthol (TRPM8) were obtained from Sigma, GSK1016790A (TRPV4) from Cayman chemicals, and GSK1702934A (TRPC3, TRPC6 and TRPC7) from Tocris Bioscience. Antagonist Pyr3 was obtained from Tocris Bioscience, all other antagonists were synthesized in house. Data were acquired with a sampling rate of 20 kHz, low-pass filtered (10 kHz), and analyzed offline using Clampfit v10.4.2.0 (Molecular Devices).
# Electrophysiology results were expressed as means±SD. Data were plotted, and sigmoidal fitting was done using OriginPro (from OriginLab), with the following Boltzmann function:
# Using the patch clamp technique in the whole-cell configuration, compounds were screened by challenging hTRPC3 overexpressing HEK293 cells with GSK1702934A to activate TRPC3 and each of the synthesized compounds (10 μM) individually in the presence of the agonist.
# To avoid tachyphylaxis and determine the IC50 of compound 22, each point of the dose response curve (FIG. 1B) was done individually on a cell and exchanging coverslips between cells. […] FIGS. 1D-1I show the inhibition of TRPC3-mediated currents by compound 22 and Pyr3 (serving as the reference control). […] Similar results were obtained when OAG was used as the agonist (data not shown).
row,Compound,inhibition at 10 µM [%]
1,"CCN(CC)C(=O)c1cnn(-c2ccc(-n3ccc(Cl)c(Cl)c3=O)cc2)c1C(F)(F)F [Compound 43, 1-(4-(3,4-dichloro-2-oxopyridin-1(2H)-yl)phenyl)-N,N-diethyl-5-(trifluoromethyl)-1H-pyrazole-4-carboxamide]",94.8 ± 2.75
2,"CCNC(=O)c1cnn(-c2ccc(-n3ccc(Cl)c(Cl)c3=O)cc2)c1C#N [Compound 52, 5-cyano-1-(4-(3,4-dichloro-2-oxopyridin-1(2H)-yl)phenyl)-N-ethyl-1H-pyrazole-4-carboxamide]",88.8 ± 6.37
3,"CCCNC(=O)c1cnn(-c2ccc(-n3ccc(Cl)c(Cl)c3=O)cc2)c1C(F)(F)F [Compound 39, 1-(4-(3,4-dichloro-2-oxopyridin-1(2H)-yl)phenyl)-N-propyl-5-(trifluoromethyl)-1H-pyrazole-4-carboxamide]",71.5 ± 4.51
4,"CC(=O)c1cnn(-c2ccc(-n3ccc(Cl)c(Cl)c3=O)cc2)c1C(F)(F)F [Compound 67, 1-(4-(4-acetyl-5-(trifluoromethyl)-1H-pyrazol-1-yl)phenyl)-3,4-dichloropyridin-2(1H)-one]",88.7 ± 2.83
5,"CC(C)NC(=O)c1cnn(-c2ccc(-n3ccc(Cl)c(Cl)c3=O)cc2)c1C(F)(F)F [Compound 41, 1-(4-(3,4-dichloro-2-oxopyridin-1(2H)-yl)phenyl)-N-isopropyl-5-(trifluoromethyl)-1H-pyrazole-4-carboxamide]",25.8 ± 8.57
6,"CCOCc1cnn(-c2ccc(-n3ccc(Cl)c(Cl)c3=O)cc2)c1C(F)(F)F [Compound 78, 3,4-dichloro-1-(4-(4-(ethoxymethyl)-5-(trifluoromethyl)-1H-pyrazol-1-yl)phenyl)pyridin-2(1H)-one]",68.3 ± 2.11
7,"CCC(=O)Nc1cnn(-c2ccc(-n3ccc(Cl)c(Cl)c3=O)cc2)c1C(F)(F)F [Compound 58, N-(1-(4-(3,4-dichloro-2-oxopyridin-1(2H)-yl)phenyl)-5-(trifluoromethyl)-1H-pyrazol-4-yl)propionamide]",86 ± 2.8
8,CCNC(=O)c1cnn(-c2ccc(-n3ccc(Cl)c(F)c3=O)cc2)c1C(F)(F)F [Compound 24],55.5 ± 7.07
9,"CCNC(=O)c1ncn(-c2ccc(-n3ccc(Cl)c(Cl)c3=O)cc2)c1C(F)(F)F [Compound 59, 1-(4-(3,4-dichloro-2-oxopyridin-1(2H)-yl)phenyl)-N-ethyl-5-(trifluoromethyl)-1H-imidazole-4-carboxamide]",95.9 ± 3.72
10,"CS(=O)(=O)c1cnn(-c2ccc(-n3ccc(Cl)c(Cl)c3=O)cc2)c1C(F)(F)F [Compound 73, 3,4-Dichloro-1-(4-(4-(methylsulfonyl)-5-(trifluoromethyl)-1H-pyrazol-1-yl)phenyl)pyridine-2(1H)-one]",72.7 ± 7.96
11,"CCOC(=O)c1cnn(-c2ccc(-n3ccc(Cl)c(Cl)c3=O)cc2)c1C(F)(F)F [Compound 4, Ethyl 1-(4-(3,4-dichloro-2-oxopyridin-1(2H)-yl)phenyl)-5-(trifluoromethyl)-1H-pyrazole-4-carboxylate]",51.4 ± 4.35
12,"CCNS(=O)(=O)c1cnn(-c2ccc(-n3ccc(Cl)c(Cl)c3=O)cc2)c1C(F)(F)F [Compound 48, 1-(4-(3,4-dichloro-2-oxopyridin-1(2H)-yl)phenyl)-N-ethyl-5-(trifluoromethyl)-1H-pyrazole-4-sulfonamide]",67.8 ± 1.75
13,"O=C(c1cnn(-c2ccc(-n3ccc(Cl)c(Cl)c3=O)cc2)c1C(F)(F)F)N1CCCC1 [Compound 45, 3,4-dichloro-1-(4-(4-(pyrrolidine-1-carbonyl)-5-(trifluoromethyl)-1H-pyrazol-1-yl)phenyl)pyridin-2(1H)-one]",86.7 ± 3.82
14,"CCCC(N)c1cnn(-c2ccc(-n3ccc(Cl)c(Cl)c3=O)cc2)c1C(F)(F)F (centres unmarked) [Compound 76, 1-(4-(4-(1-aminobutyl)-5-(trifluoromethyl)-1H-pyrazol-1-yl)phenyl)-3,4-dichloropyridin-2(1H)-one]",33 ± 5.58
15,"CCNC(=O)c1cnn(-c2ccc(-n3ccc(Cl)cc3=O)cc2)c1C(F)(F)F [Compound 21, 1-(4-(4-chloro-2-oxopyridin-1(2H)-yl)phenyl)-N-ethyl-5-(trifluoromethyl)-1H-pyrazole-4-carboxamide]",84.52 ± 0.722
16,CCNC(=O)c1cnn(-c2ccc(-n3cc(Cl)c(Cl)c(Cl)c3=O)cc2)c1C(F)(F)F [Compound 33],45.2 ± 3.59
17,"CC(=O)c1cnn(-c2ccc(-n3ccc(C)c(Cl)c3=O)cc2)c1C(F)(F)F [Compound 71, 1-(4-(4-acetyl-5-(trifluoromethyl)-1H-pyrazol-1-yl)phenyl)-3-chloro-4-methylpyridin-2(1H)-one]",57.8 ± 8.74
18,"CCNC(=O)c1cnn(-c2ccc(NC(=O)C(Cl)=C(Cl)Cl)cc2)c1C(F)(F)F [Compound 79, N-ethyl-1-(4-(2,3,3-trichloroacrylamido)phenyl)-5-(trifluoromethyl)-1H-pyrazole-4-carboxamide]",23.2 ± 1.23
19,"CCOC(=O)c1cnn(-c2ccc(-n3cc(Cl)c(Cl)c(Cl)c3=O)cc2)c1C(F)(F)F [Compound 9, Ethyl 1-(4-(3,4,5-trichloro-2-oxopyridin-1(2H)-yl)phenyl)-5-(trifluoromethyl)-1H-pyrazole-4-carboxylate]",39.1 ± 2.31
20,CCNC(=O)c1cnn(-c2ccc(-n3cc(Br)c(Cl)c(Br)c3=O)cc2)c1C(F)(F)F [Compound 34],34 ± 6.52
21,"CCNC(=O)c1cnn(-c2ccc(-n3ccc(Cl)c(Cl)c3=O)cc2)c1 [Compound 50, 1-(4-(3,4-dichloro-2-oxopyridin-1(2H)-yl)phenyl)-N-ethyl-1H-pyrazole-4-carboxamide]",98.08 ± 0.85
22,"CCOC(=O)c1cnn(-c2ccc(-n3cc(Cl)c(Cl)cc3=O)cc2)c1C(F)(F)F [Compound 5, Ethyl 1-(4-(4,5-dichloro-2-oxopyridin-1(2H)-yl)phenyl)-5-(trifluoromethyl)-1H-pyrazole-4-carboxylate]",39.1 ± 2.31
23,"CC(=O)c1cnn(-c2ccc(-n3ccc(Cl)cc3=O)cc2)c1C(F)(F)F [Compound 66, 1-(4-(4-acetyl-5-(trifluoromethyl)-1H-pyrazol-1-yl)phenyl)-4-chloropyridin-2(1H)-one]",60.4 ± 5.12
24,"CCCC(=O)c1cnn(-c2ccc(-n3ccc(Cl)c(Cl)c3=O)cc2)c1C(F)(F)F [Compound 69, 1-(4-(4-butyryl-5-(trifluoromethyl)-1H-pyrazol-1-yl)phenyl)-3,4-dichloropyridin-2(1H)-one]",63.4 ± 4.83
25,"CCNC(=O)c1cn(-c2ccc(-n3ccc(Cl)c(Cl)c3=O)cc2)nc1C(F)(F)F [Compound 49, 1-(4-(3,4-dichloro-2-oxopyridin-1(2H)-yl)phenyl)-N-ethyl-3-(trifluoromethyl)-1H-pyrazole-4-carboxamide]",97.23 ± 0.89

# Same assay, conditions: agonist GSK1702934A; HEK293 whole-cell patch clamp; read-out: hTRPC3 IC50 (μM, mean ± SEM)
row,Compound,IC50 [µM]
1,"CCN(CC)C(=O)c1cnn(-c2ccc(-n3ccc(Cl)c(Cl)c3=O)cc2)c1C(F)(F)F [Compound 43, 1-(4-(3,4-dichloro-2-oxopyridin-1(2H)-yl)phenyl)-N,N-diethyl-5-(trifluoromethyl)-1H-pyrazole-4-carboxamide]",4.32 ± 0.98
2,"CCNC(=O)c1ncn(-c2ccc(-n3ccc(Cl)c(Cl)c3=O)cc2)c1C(F)(F)F [Compound 59, 1-(4-(3,4-dichloro-2-oxopyridin-1(2H)-yl)phenyl)-N-ethyl-5-(trifluoromethyl)-1H-imidazole-4-carboxamide]",0.87 ± 0.17
3,"CCNC(=O)c1cnn(-c2ccc(-n3ccc(Cl)c(Cl)c3=O)cc2)c1 [Compound 50, 1-(4-(3,4-dichloro-2-oxopyridin-1(2H)-yl)phenyl)-N-ethyl-1H-pyrazole-4-carboxamide]",2.56 ± 0.52
4,"CCNC(=O)c1cn(-c2ccc(-n3ccc(Cl)c(Cl)c3=O)cc2)nc1C(F)(F)F [Compound 49, 1-(4-(3,4-dichloro-2-oxopyridin-1(2H)-yl)phenyl)-N-ethyl-3-(trifluoromethyl)-1H-pyrazole-4-carboxamide]",1.1 ± 0.24
